Measurements published in patent publication US11517577B2, “Fluorinated bile acid derivatives” (NZP UK LIMITED, priority 2018, dated 2022).
Like-named read-outs stand apart in the source and are kept apart here.

Tests used:
[1] = molecular target: T1, Human Farnesoid X Receptor (NR1H4, FXR) (Homo sapiens, UniProt Q96RI1); assay: FXR reporter assay, EC50 and efficacy (Indigo Biosciences luciferase reporter cells); type: cell-based; details: for Efficacy: maximum point on the dose response curve, GW4064 designated as 100%
T1 sequence (Q96RI1 1-486): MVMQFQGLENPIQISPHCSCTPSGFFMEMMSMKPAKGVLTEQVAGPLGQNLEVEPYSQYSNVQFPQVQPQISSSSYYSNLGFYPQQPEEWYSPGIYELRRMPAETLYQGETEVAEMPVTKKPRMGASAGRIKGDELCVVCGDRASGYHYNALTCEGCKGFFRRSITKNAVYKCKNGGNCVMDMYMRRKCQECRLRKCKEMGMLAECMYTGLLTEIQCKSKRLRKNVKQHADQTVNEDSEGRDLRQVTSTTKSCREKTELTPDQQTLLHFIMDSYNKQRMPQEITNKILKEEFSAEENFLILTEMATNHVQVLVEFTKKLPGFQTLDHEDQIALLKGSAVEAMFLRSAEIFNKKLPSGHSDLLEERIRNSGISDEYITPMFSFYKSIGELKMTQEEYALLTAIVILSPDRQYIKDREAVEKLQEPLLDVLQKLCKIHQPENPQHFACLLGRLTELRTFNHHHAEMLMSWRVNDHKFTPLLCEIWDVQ
Protocol: The compounds of the invention were assayed for agonist activity at the FXR receptor.
Dose-response assays were performed as described in the technical manual of the Human Farnesoid X Receptor (NR1H4, FXR) Reporter Assay System (Indigo Biosciences Human Farnesoid X Receptor (NR1H4, FXR) Reporter Assay System, Technical Manual (version 7.1b), at the World Wide Web (www)indiqobiosciences.com).
FXR reporter cells consisting of an FXR-responsive promoter gene functionally linked to the luciferase gene were defrosted and seeded into a 96-well plate and these cells were immediately dosed with the test compounds at different concentrations (10-0.05 μM) according to the manufacturer's protocol. […] Following this, the induction of luciferase activity, which is the measure of the agonist activity, was quantified by using luminometer (TECAN) according to the manufacturer's protocol.

[2] = Xiao et al., 2017; cited from earlier work
TGR5 (GPBAR1) receptor = molecular target: T2, TGR5 (GPBAR1) receptor (Homo sapiens, UniProt Q8TDU6); assay: HITHUNTER cAMP assay, agonist mode, TGR5 receptor; details: for Emax: read-out: Max Response; for agonist activity at the TGR5 receptor: statement in words on Table 2
T2 sequence (Q8TDU6 1-330): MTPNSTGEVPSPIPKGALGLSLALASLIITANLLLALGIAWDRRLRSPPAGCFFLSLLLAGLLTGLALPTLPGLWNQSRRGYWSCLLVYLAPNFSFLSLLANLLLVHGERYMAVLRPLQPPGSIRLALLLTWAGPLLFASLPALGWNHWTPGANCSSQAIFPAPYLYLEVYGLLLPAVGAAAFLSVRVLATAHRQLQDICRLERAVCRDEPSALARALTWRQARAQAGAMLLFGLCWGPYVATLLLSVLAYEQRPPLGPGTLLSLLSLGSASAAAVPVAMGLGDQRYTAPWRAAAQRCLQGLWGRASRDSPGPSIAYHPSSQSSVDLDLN
Protocol: 1. cAMP Hunter cell lines were expanded from freezer stocks according to standard procedures.
Cells were seeded in a total volume of 20 μL into white walled, 384-well microplates and incubated at 37° C. for the appropriate time prior to testing.
For agonist determination, cells were incubated with sample to induce response.
Media was aspirated from cells and replaced with 15 μL 2:1 HBSS/10 mM Hepes:cAMP XS+ Ab reagent.
Intermediate dilution of sample stocks was performed to generate 4× sample in assay buffer.
5 μL of 4× sample was added to cells and incubated at 37° C. or room temperature for 30 or 60 minutes. Vehicle concentration was 1%.
After appropriate compound incubation, assay signal was generated through incubation with 20 μL cAMP XS+ ED/CL lysis cocktail for one hour followed by incubation with 20 μL cAMP XS+ EA reagent for three hours at room temperature.
Microplates were read following signal generation with a PerkinElmer ENVISION™ instrument for chemiluminescent signal detection.
Compound activity was analyzed using CBIS data analysis suite (ChemInnovation, CA).
For Gs agonist mode assays, percentage activity is calculated using the following formula, where RLU is an abbreviation for relative light units:

[3] = tested on: CYP7A1 expression in HepG2 cells; assay: qPCR of CYP7A1 expression in HepG2 cells; type: cell-based, human; details: HepG2, 24 hours
Protocol: (§1) Compound 2 and OCA were also tested in the human hepatocellular carcinoma cell line, HepG2.
(§2) Testing in Huh7 cells and HepG2 cells was also carried out for Compound 14 in the same way as for Compound 2.
(§3) Total RNA was extracted using the RNAQUEOUS™ Total RNA Isolation kit (Ambion) and all reagents were provided in the kit or prepared according to manufacturer's instructions. For cultured cells, the medium was removed and cells were washed with 1×PBS to remove cellular debris and residual medium. Total RNA was extracted from fresh cells. For 1×10^6 cells, 350 μl lysis buffer was added directly to the well and cells were harvested by scraping with a pipette tip. […]
(§4) The ready-to-use reaction mastermix, ITAQ™ Universal SYBR® Green Supermix (Biorad) was used for all qPCR reactions. […] Melting curve analysis was performed straight after each run by increasing the temperature from 60° C. to 95° C. in 0.3° C. increments, and measuring fluorescence dissociation.
(§5) To quantify gene expression, the baseline-corrected Ct value was determined automatically by the qPCR system software (Applied Biosystems). Relative changes in gene expression were determined by the Livak, or ΔΔCt, method whereby the Ct values of target genes were normalised to Ct value of the reference gene, for both the samples treated with vehicle/untreated samples (control) and the samples treated with compound (test samples). […]

[4] = tested on: TGFβ1 expression in HepG2 cells; assay: qPCR of TGFβ1 expression in HepG2 cells; type: cell-based, human; details: HepG2, 24 hours
Protocol: as §1, §2, §3, §4, §5

[5] = tested on: SHP expression in Huh7 cells; assay: qPCR of SHP (NR0B2) expression in Huh7 cells; type: cell-based, human; details: Huh7, 24 hours
Protocol: (§6) To assess specific changes in gene expression in response to the test compounds, precise quantification and analysis by quantitative real-time PCR (qPCR) was carried out. Mammalian tissue culture experiments involved seeding Hepatocellular carcinoma, (Huh7) cells, in 6 well plates at a concentration of 1×10^6 cells/well and incubating for 24 hours at 37° C. to allow attachment.
as §2
as §3, with “tip. Lysed cells were combined with an equal volume of 64% ethanol and mixed thoroughly by pipetting. The ethanol-lysate mix was transferred to a column and spun at 12,000×G for 1 minute and flow through discarded.” for “tip.”
as §4
To quantify gene expression, the baseline-corrected Ct value was determined automatically by the qPCR system software (Applied Biosystems). Relative changes in gene expression were determined by the Livak, or ΔΔCt, method whereby the Ct values of target genes were normalised to Ct value of the reference gene, for both the samples treated with vehicle/untreated samples (control) and the samples treated with compound (test samples). […] And finally, the expression ratio was calculated using the equation 2^−ΔΔC^t. […]

[6] = tested on: OSTα expression in Huh7 cells; assay: qPCR of OSTα expression in Huh7 cells; type: cell-based, human; details: Huh7, 24 hours
Protocol: as §6, §2
Total RNA was extracted using the RNAQUEOUS™ Total RNA Isolation kit (Ambion) and all reagents were provided in the kit or prepared according to manufacturer's instructions. […]
as §4, §5

Compound	EC50 ([1]; FXR reporter cells, 24 h incubation, normalized against EC50 of GW4064, assigned as […] nM)	Efficacy [1]	liver:plasma concentration ratio [2]	EC50 (TGR5 (GPBAR1) receptor)	Emax (TGR5 (GPBAR1) receptor)	agonist activity at the TGR5 receptor (TGR5 (GPBAR1) receptor)	CYP7A1 expression ([3]; compound at the EC50 concentration, versus vehicle control cells)	TGFβ1 expression ([4]; with increasing compound concentrations)	SHP expression levels ([5]; compound at its EC90 concentration)	Ostα mRNA increase in expression ([6]; compound at EC50 concentration)	Ostα mRNA increase in expression ([6]; compound at EC90 concentration)	EC50 [1]	CYP7A1 expression ([3]; with increasing concentrations of compound)	TGFβ1 expression levels ([4]; compound at its EC50 concentration)	SHP expression levels increased ([5]; compound at EC50 concentration)	SHP expression levels increased ([5]; higher value, printed again as 'EC50 concentration')
CC[C@H]1[C@@H](O)[C@@H]2[C@H](CC[C@]3(C)[C@@H]([C@H](C)CCC(=O)NS(=O)(=O)c4ccc(C(F)(F)F)cc4)CC[C@@H]23)[C@@]2(C)CC[C@@H](O)[C@H](F)[C@@H]12 [Compound 18, N-(3α,7α-Dihydroxyl-4β-fluoro-6α-ethyl-5β-cholan-24-oyl)-4-trifluoromethylphenyl sulfonamide]	15 nM	148%	highest	–	–	–	–	–	–	–	–	–	–	–	–	–
CC[C@H]1[C@@H](O)[C@@H]2[C@H](CC[C@]3(C)[C@@H]([C@H](C)CCC(=O)NS(=O)(=O)c4ccc(OC(F)(F)F)cc4)CC[C@@H]23)[C@@]2(C)CC[C@@H](O)[C@H](F)[C@@H]12 [Compound 14, N-(3α,7α-Dihydroxyl-4β-fluoro-6α-ethyl-5β-cholan-24-oyl)-p-trifluoromethoxy benzene sulfonamide]	–	–	–	> 100000 nM	0%	neither Compound 2 nor Compound 14 has agonist activity at the TGR5 receptor	significantly decreased	decline	more than doubled	–	–	–	–	–	–	–
CC[C@@H]1[C@@H]2[C@@H](F)[C@H](O)CC[C@]2(C)C2CC[C@@]3(C)C(CCC3[C@H](C)CCNC(=O)NS(=O)(=O)c3ccccc3)C2[C@@H]1O (stereo partly drawn) [Compound 2, N,N′-(3α,7α-Dihydroxyl-4β-fluoro-6α-ethyl-24-nor-5β-cholan-23-yl)-benzene sulfonyl urea]	–	195%	–	> 100000 nM	0%	neither Compound 2 nor Compound 14 has agonist activity at the TGR5 receptor	–	–	–	11 fold	18 fold	24 nM	downregulated	significant downregulation	1.5 times	2.5 times
